Values after ≈ are worked out from the molar mass of the structure shown. Read-outs that look alike come from different tables or passages of the source.
Assays:
[1] = tested on: P. aeruginosa (strain WC-452); assay: 21-day serial passage resistance assay; type: cell-based, Pseudomonas aeruginosa; conditions: CAA broth, over 18 days of serial passage
Protocol: The well with the highest concentration of GN lysin in which bacterial growth was seen was then used as the inoculum for the next day's passage, and the process was repeated over a 21 day period. The MIC at each daily time-point was recorded, and resistance was measured as a step-wise increase in MIC.

[2] = tested on: carbapenem-resistant P. aeruginosa strains; assay: microbe, parasite or virus in culture; type: cell-based, Pseudomonas aeruginosa; conditions: for MIC: Pseudomonas aeruginosa; for MIC Combination / MIC Alone: vs. WC-452
Protocol: Such resensitization may be determined by combining the present lysins or lysin-AMP polypeptide constructs with an antibiotic in a checkerboard assay as described herein. Antibiotic-resistant bacteria, such as carbapenem-resistant P. aeruginosa, are added to the lysin or lysin-AMP polypeptide construct combination. […] See Clinical and Laboratory Standards Institute (CLSI), CLSI. […] M100 Performance Standards for Antimicrobial Susceptibility Testing; 29th Edition. Clinical and Laboratory Standards Institute, Wayne, Pa., which is herein incorporated by reference in its entirety.
Up to seven carbapenem-resistant isolates were assessed. […] See Clinical and Laboratory Standards Institute (CLSI), CLSI. […] M100 Performance Standards for Antimicrobial Susceptibility Testing; 29th Edition. Clinical and Laboratory Standards Institute, Wayne, Pa.

P. aeruginosa = assay: MIC by modified CLSI broth microdilution in CAA media, CAA with human serum or with Survanta; type: cell-based; conditions: Pseudomonas aeruginosa
From the text: 2015. […] Clinical and Laboratory Standards Institute, Wayne, Pa.

## O=C(O)c1cn(C2CC2)c2cc(N3CCNCC3)c(F)cc2c1=O [Ciprofloxacin]
[1]
  increase of MIC during serial passage: 16 fold

## C[C@@H](O)[C@H]1C(=O)N2C(C(=O)O)=C(S[C@@H]3CN[C@H](C(=O)N(C)C)C3)[C@H](C)[C@H]12 [Meropenem, meropenem]
[2]; GN121, read-out: MIC (μg/mL) Alone, isolate PA19, checkerboard Meropenem + GN121
  MIC: 32 µg/mL
[2]; GN121, read-out: MIC (μg/mL) Alone, isolate PA20, checkerboard Meropenem + GN121
  MIC: 16 µg/mL
[2]; GN121, read-out: MIC (μg/mL) Alone, isolate PA21, checkerboard Meropenem + GN121
  MIC: 32 µg/mL
[2]; GN121, read-out: MIC (μg/mL) Alone, isolate PA22, checkerboard Meropenem + GN121
  MIC: 16 µg/mL
[2]; GN121, read-out: MIC (μg/mL) Alone, isolate PA23, checkerboard Meropenem + GN121
  MIC: 16 µg/mL
[2]; GN121, read-out: MIC (μg/mL) Alone, isolate PA24, checkerboard Meropenem + GN121
  MIC: 32 µg/mL
[2]; GN121, read-out: MIC (μg/mL) Alone, isolate WC-452, checkerboard Meropenem + GN121
  MIC: 16 µg/mL
[2]; GN123, read-out: MIC (μg/mL) Alone, isolate PA19, checkerboard MEROPENEM + GN123
  MIC: 32 µg/mL
[2]; GN123, read-out: MIC (μg/mL) Alone, isolate PA20, checkerboard MEROPENEM + GN123
  MIC: 16 µg/mL
[2]; GN123, read-out: MIC (μg/mL) Alone, isolate PA21, checkerboard MEROPENEM + GN123
  MIC: 32 µg/mL
[2]; GN123, read-out: MIC (μg/mL) Alone, isolate PA22, checkerboard MEROPENEM + GN123
  MIC: 16 µg/mL
[2]; GN123, read-out: MIC (μg/mL) Alone, isolate PA23, checkerboard MEROPENEM + GN123
  MIC: 16 µg/mL
[2]; GN123, read-out: MIC (μg/mL) Alone, isolate PA24, checkerboard MEROPENEM + GN123
  MIC: 32 µg/mL
[2]; GN123, read-out: MIC (μg/mL) Alone, isolate WC-452, checkerboard MEROPENEM + GN123
  MIC: 16 µg/mL
[2]; isolate PA19
  susceptibility category of the isolate, carbapenem Alone: (R) ((R) = resistant)
[2]; isolate PA19, MEROPENEM combined with GN123
  MIC (μg/mL) Combination: 0.5 µg/mL
[2]; isolate PA19, Meropenem combined with GN121
  MIC (μg/mL) Combination: 1 µg/mL
[2]; isolate PA19, combined with GN123
  susceptibility category of the isolate, carbapenem in Combination: (S) ((S) = sensitive)
[2]; isolate PA20
  susceptibility category of the isolate, carbapenem Alone: (R) ((R) = resistant)
[2]; isolate PA20, MEROPENEM combined with GN123
  MIC (μg/mL) Combination: 0.5 µg/mL
[2]; isolate PA20, Meropenem combined with GN121
  MIC (μg/mL) Combination: 1 µg/mL
[2]; isolate PA20, combined with GN123
  susceptibility category of the isolate, carbapenem in Combination: (S) ((S) = sensitive)
[2]; isolate PA21
  susceptibility category of the isolate, carbapenem Alone: (R) ((R) = resistant)
[2]; isolate PA21, MEROPENEM combined with GN123
  MIC (μg/mL) Combination: 1 µg/mL
[2]; isolate PA21, Meropenem combined with GN121
  MIC (μg/mL) Combination: 2 µg/mL
[2]; isolate PA21, combined with GN123
  susceptibility category of the isolate, carbapenem in Combination: (S) ((S) = sensitive)
[2]; isolate PA22
  susceptibility category of the isolate, carbapenem Alone: (R) ((R) = resistant)
[2]; isolate PA22, MEROPENEM combined with GN123
  MIC (μg/mL) Combination: 1 µg/mL
[2]; isolate PA22, Meropenem combined with GN121
  MIC (μg/mL) Combination: 1 µg/mL
[2]; isolate PA22, combined with GN123
  susceptibility category of the isolate, carbapenem in Combination: (S) ((S) = sensitive)
[2]; isolate PA23
  susceptibility category of the isolate, carbapenem Alone: (R) ((R) = resistant)
[2]; isolate PA23, MEROPENEM combined with GN123
  MIC (μg/mL) Combination: 0.5 µg/mL
[2]; isolate PA23, Meropenem combined with GN121
  MIC (μg/mL) Combination: 2 µg/mL
[2]; isolate PA23, combined with GN123
  susceptibility category of the isolate, carbapenem in Combination: (S) ((S) = sensitive)
[2]; isolate PA24
  susceptibility category of the isolate, carbapenem Alone: (R) ((R) = resistant)
[2]; isolate PA24, MEROPENEM combined with GN123
  MIC (μg/mL) Combination: 2 µg/mL
[2]; isolate PA24, Meropenem combined with GN121
  MIC (μg/mL) Combination: 1 µg/mL
[2]; isolate PA24, combined with GN123
  susceptibility category of the isolate, carbapenem in Combination: (S) ((S) = sensitive)
[2]; isolate WC-452
  susceptibility category of the isolate, carbapenem Alone: (R) ((R) = resistant)
[2]; isolate WC-452, MEROPENEM combined with GN123
  MIC (μg/mL) Combination: 1 µg/mL
[2]; isolate WC-452, Meropenem combined with GN121
  MIC (μg/mL) Combination: 1 µg/mL
[2]; isolate WC-452, combined with GN123
  susceptibility category of the isolate, carbapenem in Combination: (S) ((S) = sensitive)
[2]; isolate WC-452, combined with GN351
  susceptibility category of the isolate, carbapenem in Combination: (S) ((S) = sensitive)
[2]; isolate WC-452, combined with GN370
  susceptibility category of the isolate, carbapenem in Combination: (S) ((S) = sensitive)
[2]; isolate WC-452, combined with GN428
  susceptibility category of the isolate, carbapenem in Combination: (S) ((S) = sensitive)
[2]; MEM combined with GN351
  MIC Combination: 1 µg/mL
[2]; MEM combined with GN370
  MIC Combination: 0.5 µg/mL
[2]; MEM combined with GN428
  MIC Combination: 1 µg/mL
[2]; checkerboard MEM + GN351
  MIC Alone: 16 µg/mL
[2]; checkerboard MEM + GN428
  MIC Alone: 16 µg/mL
P. aeruginosa; ATCC17646, read-out: Meropenem MIC (μg/mL), strain CFS 1109 (ATCC 17646)
  MIC: 0.5 µg/mL (≈ 1.3 µM)
P. aeruginosa; ATCC27853, read-out: Meropenem MIC (μg/mL), strain CFS 1766 (ATCC 27853)
  MIC: 1 µg/mL (≈ 2.61 µM)
P. aeruginosa; PA1, read-out: Meropenem MIC (μg/mL), strain CFS 1539 (PA1)
  MIC: 16 µg/mL (≈ 41.7 µM)
P. aeruginosa; read-out: Meropenem MIC (μg/mL), […]
  MIC: > 32 µg/mL
P. aeruginosa; read-out: Meropenem MIC (μg/mL), strain CFS 1541 (PA3)
  MIC: 8 µg/mL (≈ 20.9 µM)
P. aeruginosa; read-out: Meropenem MIC (μg/mL), strain CFS 1596 (PA26)
  MIC: 0.5 µg/mL (≈ 1.3 µM)
P. aeruginosa; read-out: Meropenem MIC (μg/mL), strain CFS 1597 (PA27)
  MIC: 1 µg/mL (≈ 2.61 µM)
P. aeruginosa; read-out: Meropenem MIC (μg/mL), strain CFS 1669 (PA41)
  MIC: < 0.25 µg/mL
P. aeruginosa; read-out: Meropenem MIC (μg/mL), strain CFS 1674 (PA46)
  MIC: 4 µg/mL (≈ 10.4 µM)
P. aeruginosa; read-out: Meropenem MIC (μg/mL), strain CFS 1675 (PA47)
  MIC: 4 µg/mL (≈ 10.4 µM)

— patent publication US20210147498A1, “USE OF GRAM-NEGATIVE LYSIN-ANTIMICROBIAL PEPTIDE (AMP) POLYPEPTIDE CONSTRUCTS IN PULMONARY SURFACTANT AND BIOFILMS” (priority 2018, published 2021)
